These results are taken from the supplement of paper PMC10627819.

Assay in all cases: Bliss interaction score (quartile over a dose matrix) (fitness difference); higher = more antagonism (negative = synergy)
One assay concerns B. subtilis 168. The method, boiled down: (§1)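 Fitness was derived from optical density at entry into stationary phase, divided by the robust mean of the no-drug wells on the same plate. That reading was taken as OD595, and the ratio was capped at 1. Single-drug fitness was inferred from the combination data. The Bliss score, observed fitness minus the expected product of single-drug fitness, was summarised as quartiles over technical, biological and donor/recipient replicates.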

For a further assay, the system named is S. aureus DSM 20231. The method, boiled down:
as §1

Another assay deals with S. aureus Newman. In outline: as §1
The next assay relates to S. pneumoniae D39V. The method, boiled down: as §1
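Further: first quartile when negative (synergy) and third quartile when positive (antagonism).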

With `CC(=O)Oc1ccccc1C(=O)O` [Acetylsalicylicacid] + CC[C@H]1OC(=O)[C@H](C)[C@@H](O[C@H]2C[C@@](C)(OC)[C@@H](O)[C@H](C)O2)[C@H](C)[C@@H](O[C@@H]2O[C@H](C)C[C@H](N(C)C)[C@H]2O)[C@](C)(OC)C[C@@H](C)C(=O)[C@H](C)[C@@H](O)[C@]1(C)O [Clarithromycin], the Bliss interaction score was 0.322 with B. subtilis 168, 0.109 in the assay with S. aureus DSM 20231, 0.151 in the assay on S. aureus Newman and 0.0695 in the assay with S. pneumoniae D39V.
Consider `CC(=O)Oc1ccccc1C(=O)O` [Acetylsalicylicacid] + CC[C@H](C)[C@H](N)C1=N[C@H](C(=O)N[C@@H](CC(C)C)C(=O)N[C@H](CCC(=O)O)C(=O)N[C@H](C(=O)N[C@H]2CCCCNC(=O)[C@H](CC(N)=O)NC(=O)[C@@H](CC(=O)O)NC(=O)[C@H](Cc3cnc[nH]3)NC(=O)[C@@H](Cc3ccccc3)NC(=O)[C@H]([C@@H](C)CC)NC(=O)[C@@H](CCCN)NC2=O)[C@@H](C)CC)CS1 [Bacitracin], for which the Bliss interaction score with B. subtilis 168 (main component drawn) is 0.123; in the assay with S. aureus DSM 20231 (main component drawn) it was 0.0276; in the assay on S. aureus Newman (main component drawn) it was -0.0752; in the assay with S. pneumoniae D39V (main component drawn), 0.165.
For `CC(=O)Oc1ccccc1C(=O)O` [Acetylsalicylicacid] + CN1C2=CC=CC=C2N=C3C1=CC=CC3=O [Pyocyanin], the Bliss interaction score was -0.0887 with B. subtilis 168, -0.0748 in the assay on S. aureus DSM 20231, -0.0562 in the assay with S. aureus Newman and -0.0649 in the assay on S. pneumoniae D39V.
For `CC(=O)Oc1ccccc1C(=O)O` [Acetylsalicylicacid] + CN(C)C(=O)C(CCN1CCC(O)(c2ccc(Cl)cc2)CC1)(c1ccccc1)c1ccccc1 [Loperamide] the same measures were 0.0636, 0.131, -0.0344 and 0.144.
For `CC(=O)Oc1ccccc1C(=O)O` [Acetylsalicylicacid] + CN(C)[C@@H]1C(O)=C(C(N)=O)C(=O)[C@@]2(O)C(O)=C3C(=O)c4c(O)ccc(Cl)c4[C@@](C)(O)[C@H]3C[C@@H]12 [Clortetracycline] the same measures were -0.311, -0.101, -0.0574 and -0.0497.
For `CC(=O)Oc1ccccc1C(=O)O` [Acetylsalicylicacid] + CN(C)c1cc(NC(=O)CNC(C)(C)C)c(O)c2c1C[C@H]1C[C@H]3[C@H](N(C)C)C(O)=C(C(N)=O)C(=O)[C@@]3(O)C(O)=C1C2=O [Tigecycline] the same measures were -0.11, -0.088, -0.0593 and -0.0515.
As to `CC(=O)Oc1ccccc1C(=O)O` [Acetylsalicylicacid] + CN(N=O)C(=O)N[C@@H](C=O)[C@@H](O)[C@H](O)[C@H](O)CO [Streptozotocin], the Bliss interaction score with B. subtilis 168 was 0.0788; in the assay on S. aureus DSM 20231 it was -0.0369; with S. aureus Newman it was 0.0716; with S. pneumoniae D39V, -0.0923.
For `CC(=O)Oc1ccccc1C(=O)O` [Acetylsalicylicacid] + CN[C@@H]1[C@H](O)[C@H](NC)[C@H]2O[C@@]3(O)C(=O)C[C@@H](C)O[C@H]3O[C@@H]2[C@H]1O [Spectinomycin] the same measures were 0.137, -0.0696, 0.0859 and -0.0679.
For the compound `CC(=O)Oc1ccccc1C(=O)O` [Acetylsalicylicacid] + CN[C@@H]1[C@H](O[C@H]2[C@H](O[C@H]3[C@H](O)[C@@H](O)[C@H](N=C(N)N)[C@@H](O)[C@@H]3N=C(N)N)O[C@@H](C)[C@]2(O)C=O)O[C@@H](CO)[C@H](O)[C@H]1O [Streptomycin], the Bliss interaction score was 0.222 in the assay on B. subtilis 168, -0.0889 in the assay with S. aureus DSM 20231, 0.0762 in the assay with S. aureus Newman and -0.0479 in the assay with S. pneumoniae D39V.
As for `CC(=O)Oc1ccccc1C(=O)O` [Acetylsalicylicacid] + CN[C@H](CC(C)C)C(=O)N[C@H]1C(=O)N[C@@H](CC(N)=O)C(=O)N[C@H]2C(=O)N[C@H]3C(=O)N[C@H](C(=O)N[C@H](C(=O)O)c4cc(O)cc(O)c4-c4cc3ccc4O)[C@H](O)c3ccc(c(Cl)c3)Oc3cc2cc(c3O[C@@H]2O[C@H](CO)[C@@H](O)[C@H](O)[C@H]2O[C@H]2C[C@](C)(N)[C@H](O)[C@H](C)O2)Oc2ccc(cc2Cl)[C@H]1O [Vancomycin], the Bliss interaction score in the assay with B. subtilis 168 was -0.0629; with S. aureus DSM 20231, -0.0542; with S. aureus Newman, 0.0599; in the assay with S. pneumoniae D39V, 0.114.
For `CC(=O)Oc1ccccc1C(=O)O` [Acetylsalicylicacid] + CN[C@H](CC(C)C)C(=O)N[C@H]1C(=O)N[C@@H](CC(N)=O)C(=O)N[C@H]2C(=O)N[C@H]3C(=O)N[C@H](C(=O)N[C@H](C(=O)O)c4cc(O)cc(O)c4-c4cc3ccc4O)[C@H](O[C@H]3C[C@](C)(N)[C@@H](O)[C@H](C)O3)c3ccc(c(Cl)c3)Oc3cc2cc(c3O[C@@H]2O[C@H](CO)[C@@H](O)[C@H](O)[C@H]2O[C@H]2C[C@](C)(NCc3ccc(-c4ccc(Cl)cc4)cc3)[C@@H](O)[C@H](C)O2)Oc2ccc(cc2Cl)[C@H]1O [Oritavancin] the same measures were -0.0215, 0.0533, 0.086 and 0.071.
As to `CC(=O)Oc1ccccc1C(=O)O` [Acetylsalicylicacid] + CO/N=C(\C(=O)N[C@@H]1C(=O)N2C(C(=O)O)=C(COC(C)=O)CS[C@H]12)c1csc(N)n1 [Cefotaxime], the Bliss interaction score in the assay with B. subtilis 168 is 0.172; in the assay with S. aureus DSM 20231 it was -0.1; in the assay on S. aureus Newman, -0.0434; in the assay with S. pneumoniae D39V, 0.138.
For `CC(=O)Oc1ccccc1C(=O)O` [Acetylsalicylicacid] + CO/N=C(\C(=O)N[C@@H]1C(=O)N2C(C(=O)O)=C(COC(N)=O)CS[C@H]12)c1ccco1 [Cefuroxime] the same measures were 0.177, -0.628, 0.0943 and 0.057.
For `CC(=O)Oc1ccccc1C(=O)O` [Acetylsalicylicacid] + CO/N=C(\C(=O)N[C@@H]1C(=O)N2C(C(=O)[O-])=C(C[N+]3(C)CCCC3)CS[C@H]12)c1csc(N)n1 [Cefepime] the same measures were 0.167, 0.097, 0.0506 and 0.118.
For `CC(=O)Oc1ccccc1C(=O)O` [Acetylsalicylicacid] + CO[C@@H]1[C@@H](OC(N)=O)[C@@H](O)[C@H](Oc2ccc3c(O)c(NC(=O)c4ccc(O)c(CC=C(C)C)c4)c(=O)oc3c2C)OC1(C)C [Novobiocin] the same measures were -0.146, -0.068, -0.0718 and 0.123.
For the compound `CC(=O)Oc1ccccc1C(=O)O` [Acetylsalicylicacid] + CO[C@@]12[C@H](COC(N)=O)C3=C(C(=O)C(C)=C(N)C3=O)N1C[C@@H]1N[C@@H]12 [MitomycinC], the Bliss interaction score in the assay with B. subtilis 168 is -0.0648; in the assay with S. aureus DSM 20231, 0.0545; with S. aureus Newman, -0.0274; in the assay on S. pneumoniae D39V it was 0.0652.
